From paper PMC5618426, “APETx4, a Novel Sea Anemone Toxin and a Modulator of the Cancer-Relevant Potassium Channel KV10.1” (Marine Drugs, 2017)
Where “and” joins values, the source holds several entries; their conditions need not be identical. Identical values can stand only once. Like-named read-outs stand apart in the source and are kept apart here. Positions of bridges follow the written chain, without caps; N, C: chain ends. No end group written: not given here.

Target: hKV10.1a (hEag1) (Homo sapiens, UniProt O95259)
Experiment: two-electrode voltage clamp, KV10.1 in Xenopus laevis oocytes
Type: cell-based
Method: For the expression of the ion channels (rNaV1.4, hNaV1.5, mNaV1.6, hKV1.1, rKV1.3, hKV1.4, hKV1.5, hKV2.1, hKV10.1a and hKV11.1,) in Xenopus oocytes, the plasmids were linearized and subsequently transcribed using the T7 or SP6 mMESSAGE-mMACHINE transcription kit (Ambion®, Carlsbad, CA, USA).
Stage V-VI Xenopus laevis oocytes were isolated by partial ovariectomy. The animals were anesthetized by a 15 min submersion in 0.1% tricaine methane sulfonate (pH 7.0). Isolated oocytes were defolliculated with 2 mg/mL collagenase.
Defolliculated oocytes were injected with 50 nL of cRNA at a concentration of 1 ng/nL using a micro-injector (Drummond Scientific®, Broomall, PA, USA). The oocytes were incubated in a solution containing (in mM): NaCl, 96; KCl, 2; CaCl2, 1.8; MgCl2, 2 and HEPES, 5 (pH 7.4), supplemented with 50 mg/L gentamycin sulfate.
Two-electrode voltage-clamp recordings were performed at room temperature (18–22 °C) using an Geneclamp 500B Voltage and Patch Clamp Amplifier (Axon Instruments, Union City, CA, USA, controlled by a Axon Digidata 1550 Low-Noise Data Acquisition System (Axon Instruments). Whole cell currents from oocytes were recorded 1–4 days after injection. The normal bath solution (ND96) composition was (in mM): NaCl, 96; KCl, 2; CaCl2, 1.8; MgCl2, 2 and HEPES, 5 (pH 7.4). The high potassium solution (HK) composition was in mM): NaCl, 2; KCl, 96; CaCl2, 1.8; MgCl2, 2 and HEPES, 5 (pH 7.4). Voltage and current electrodes were filled with 3 M KCl. Resistances of both electrodes were kept between 0.5 and 1.5 MΩ. The elicited KV1.x end KV2.1 currents were filtered at 500 Hz and sampled at 2 kHz, KV10.1 currents were filtered at 1 kHz and sampled at 2 kHz, hERG currents were filtered at 1 kHz and sampled at 10 kHz and the sodium currents were filtered at 2 kHz and sampled at 20 kHz using a four-pole low-pass Bessel filter. Leak subtraction was performed using a -P/4 protocol.
KV10.1 currents were evoked by 2 s depolarizing pulses to 0 mV from a holding potential of −90 mV. KV11.1 (hERG) peak and tail currents were generated by a 2.5 s prepulse from −90 mV to 40 mV followed by a 2.5 s pulse to −120 mV. KV1.x channel currents were evoked by 500 ms depolarizations to 0 mV from a holding potential of −90 mV followed by a 500 ms pulse to −50 mV. KV2.1 currents were elicited by 500 ms pulses to +20 mV from a holding potential of −90 mV. NaV currents were evoked by a 100 ms depolarizations to 0 mV from the holding potential.
[…]. The curve was fitted with the logistic dose-response equation, y = A1−A2/1+ (IC50/[toxin])^nH + A2 where y represents the percentage of current inhibition, A1 the initial inhibition at the lowest toxin concentration (0%), A2 the final inhibition at the highest toxin concentration, IC50 the half maximal inhibitory toxin concentration and ^nH the Hill coefficient.
The voltage-dependent activation of the KV10.1 channels was investigated by 1000 ms activating steps from the holding potential −90 mV to 65 mV with 5 mV increments. The normalized current amplitudes were plotted against the corresponding pulse potentials and fitted with the Boltzmann equation, y = A1−A2/1+ e^(V−V1/2)/k + A2, where y represents the normalized current (I/Imax), A1 is the initial y-value(-∞) and A2 is the final y-value, Imax is the maximal current, V is the test voltage, V1/2 is the half-maximal voltage and k is the slope factor.
The voltage-dependent inactivation of KV10.1 channels was studied by 1.5 s prepulses from the holding potential ranging from −140 mV to 30 mV with 10 mV steps. These pulses were followed by a 0.5 s test pulse to 30 mV [17]. The normalized peak current amplitudes (I2/I2,max) measured during the test pulse and were plotted against the prepulses and fitted with the Boltzmann equation.
All electrophysiological data are presented as means ± S.E.M of n ≥ 3 independent experiments unless otherwise indicated. […]

[1] = concentration-response curve, logistic fit

Sequence of hKV10.1a (hEag1) (O95259 other isoform, or with tags, fused parts or gaps): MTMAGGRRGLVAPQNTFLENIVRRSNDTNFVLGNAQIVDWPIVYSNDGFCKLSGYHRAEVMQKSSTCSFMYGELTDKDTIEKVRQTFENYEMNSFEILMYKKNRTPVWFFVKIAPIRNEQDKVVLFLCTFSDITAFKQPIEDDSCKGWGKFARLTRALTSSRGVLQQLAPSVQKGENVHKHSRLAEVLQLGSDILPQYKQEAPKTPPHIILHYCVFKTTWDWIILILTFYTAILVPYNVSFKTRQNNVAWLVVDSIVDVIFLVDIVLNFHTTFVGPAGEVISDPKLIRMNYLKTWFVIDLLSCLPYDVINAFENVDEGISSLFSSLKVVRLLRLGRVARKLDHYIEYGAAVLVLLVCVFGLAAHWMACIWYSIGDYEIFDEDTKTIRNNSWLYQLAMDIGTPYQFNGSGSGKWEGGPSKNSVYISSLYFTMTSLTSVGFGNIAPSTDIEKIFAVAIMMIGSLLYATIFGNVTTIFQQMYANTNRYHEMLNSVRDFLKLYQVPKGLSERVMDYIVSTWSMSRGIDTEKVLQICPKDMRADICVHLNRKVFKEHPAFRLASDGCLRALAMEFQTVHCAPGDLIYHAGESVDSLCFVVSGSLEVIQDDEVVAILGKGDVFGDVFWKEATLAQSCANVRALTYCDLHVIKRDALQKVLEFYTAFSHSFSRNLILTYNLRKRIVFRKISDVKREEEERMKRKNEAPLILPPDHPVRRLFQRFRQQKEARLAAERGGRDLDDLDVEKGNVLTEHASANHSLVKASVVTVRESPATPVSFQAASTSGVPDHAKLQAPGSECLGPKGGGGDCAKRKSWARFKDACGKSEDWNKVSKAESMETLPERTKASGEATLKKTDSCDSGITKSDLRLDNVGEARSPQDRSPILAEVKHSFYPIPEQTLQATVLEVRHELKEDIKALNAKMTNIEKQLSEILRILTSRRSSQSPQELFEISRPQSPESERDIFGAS

Sequence: GTTCYCGKTIGIYWFGKYSCPTNRGYTGSCPYFLGICCYPVD (disulfide 4-37, 6-30, 20-38) [APETx4]
- inhibition of the outward KV10.1 current (1.6 µM APETx4, 2 s pulse to 0 mV from −90 mV, ND96, pH 7.4, 18–22 °C, mean ± SEM, n = 3): highest activity on KV10.1
- inhibition at 1.6 µM (1.6 µM APETx4, 2 s pulse to 0 mV from −90 mV, ND96, pH 7.4, 18–22 °C, mean ± SEM, n = 3, read-out: inhibition of the outward KV10.1 current): 76 ± 2%
- slope factor of activation (1.6 µM APETx4, HK solution (96 mM Ko), control 15.3 ± 1.4, n = 3, NS): 13.9 ± 0.8
- half-maximal voltage V1/2 of activation (1.6 µM APETx4, HK solution (96 mM Ko), control 41.3 ± 1.4 mV, n = 3): 50.9 ± 0.8 mV
- shift of V1/2 (1.6 µM APETx4, HK solution (96 mM Ko), n = 3, p < 0.05): 9.6 ± 1.7 mV
- shift of the activation curve towards more positive potentials (1.6 µM APETx4, ND96 (2 mM Ko), Boltzmann fit, n = 3, p < 0.05): 17.7 ± 1.1 mV
- slope factor k of activation (1.6 µM APETx4, ND96 (2 mM Ko), control 20.7 ± 0.6 mV, n = 3, p < 0.05): 17.2 ± 0.3 mV
- half-maximal voltage V1/2 of activation (1.6 µM APETx4, ND96 (2 mM Ko), control 26.4 ± 0.9 mV, n = 3, p < 0.05): 44.1 ± 0.7 mV
- rise time tr (10% to 90%) (1.6 µM APETx4, control 653 ± 42 ms, n = 3, p < 0.05): 1246 ± 96 ms
- time constant τ of KV10.1 activation (1.6 µM APETx4, exponential fit, control 376 ± 60 ms, n = 3, p < 0.05): 1209 ± 229 ms
- reduction of KV10.1 current, pulse to 65 mV (1.6 μM APETx4, from the holding potential, non-normalized inhibited current (1-It/Ic)): 29 ± 6%
- current reduction upon first stimulation after closed-state incubation (1.6 µM APETx4, held at −90 mV for 10 min during addition, pulse to 0 mV, versus control current): 85.2 ± 1.9%
- inhibition at 1.6 µM (1.6 μM APETx4, non-normalized inhibited current (1-It/Ic), read-out: inhibition of KV10.1 current, pulse −90 mV to 0 mV): 79 ± 4%
- time constant τ of onset of inhibition (normalized current decrease) (1.6 µM APETx4, one phase decay fit of I/Imax versus incubation time): 97 ± 7 s
- voltage dependence of current inhibition (1.6 μM APETx4, reduced inhibition at more positive potentials, HK solution): a similar effect was observed
- IC50 (7 concentrations, logistic fit, 2 s pulse to 0 mV from −90 mV, ND96, mean ± SEM, n ≥ 3, read-out: IC50 for KV10.1 current inhibition): 1010 ± 10 nM
- inward current at negative pulse potentials (HK solution (96 mM Ko), after toxin addition (1.6 µM)): no inward currents were observed
- Hill coefficient [1]: 3.8 ± 0.3 and ~ 4
- maximal current inhibition [1]: 88.3 ± 0.9%
- inactivation properties of KV10.1 (two-pulse protocol, prepulse −140 to 30 mV, test pulse 30 mV, control or toxin condition): No apparent inactivation was observed
